Among the data in patent publication US6960588B1, “Tryptase inhibitors” (Altana Pharma AG, priority 1999, dated 2005) are Ki values, retold here.

Counter-ions that a name gives are not always drawn.

In this experiment the target is human tryptase. Put plainly: Inhibition of human tryptase (apparent dissociation constant, chromogenic substrate tos-Gly-Pro-arg-pNA). The following applies: apparent dissociation constant in presence of substrate; heparin 0.1–50 μg/ml; equilibrium conditions; read-out: Kiapp. The format is biochemical. An excerpt:
The documented pathophysiological effects of mast cell tryptase are caused directly by the enzymatic activity of the protease. Accordingly, they are reduced or blocked by inhibitors which inhibit the enzymatic activity of the tryptase. A suitable measure for the affinity of a reversible inhibitor to the target protease is the equilibrium dissociation constant Ki of the enzyme-inhibitor complex. This Ki value can be determined via the effect of the inhibitor on the tryptase-induced cleavage of a chromogenic peptide-p-nitroanilide substrate or a fluorogenic peptide-aminomethylcoumarin substrate.
The dissociation constants for the tryptase-inhibitor complexes are determined under equilibrium conditions in accordance with the general proposals of Bieth (Bieth J G, Pathophysiological Interpretation of kinetic constants of protease inhibitors, Bull. Europ. Physiopath. Resp. 16:183–195, 1980) and the methods of Sommerhoff et al. (Sommerhoff C P et al., A Kazal-type inhibitor of human mast cell tryptase: Isolation from the medical leech Hirudo medicinalis, characterization, and sequence analysis, Biol. Chem. Hoppe-Seyler 375: 685–694, 1994).
Human tryptase is isolated from lung tissue or prepared recombinantly; the specific activity of the protease, determined by titration, is usually greater than 85% of the theoretical value. In the presence of heparin (0.1–50 μg/ml) for stabilizing the protease, constant amounts of the tryptase are incubated with increasing amounts of the inhibitors. After an equilibrium between the reaction partners has formed, the remaining enzyme activity after addition of the peptide-p-nitroanilide substrate tos-Gly-Pro-argpNA is determined and the cleavage of the latter is monitored at 405 nm for 3 min. Alternatively, the remaining enzymatic activity can also be determined using fluorogenic substrates. The apparent dissociation constants Kiapp (i.e. in the presence of substrate) are subsequently determined by adapting the enzyme rates to the general equation for reversible inhibitors (Morrison J F, Kinetics of the reversible inhibition of enzyme-catalyzed reactions by tight-binding inhibitors, Biochim. Biophys. Acta 185, 269–286, 1969) using non-linear regression: V1/V0=1−{Et+It+Kiapp−[(Et+It+Kiapp)^2−4EtIt]^1/2}/2Et V1 and V0 are the rates in the presence and absence, respectively, of the inhibitor, and Et and It are the tryptase and inhibitor concentrations, respectively.
The apparent dissociation constants determined for the compounds according to the invention are shown in Table A below, where the numbers of the compounds correspond to the numbers of the compounds in the examples.
Regarding `NCc1ccc(CNC(=O)COCC#Cc2cccc(C#CCOCC(=O)NCc3ccc(CN)cc3)c2)cc1` [Compound 12, 1,3-Bis-(4-aminomethylbenzylaminocarbonylmethyl-1-oxyprop-2-ynyl)-benzene Dihydrochloride], the Ki was 13 nM.

Take `NCc1ccc(CNC(=O)OCC#Cc2ccccc2C#CCOC(=O)NCc2ccc(CN)cc2)cc1` [Compound 6, 1,2-Bis-(4-aminomethylbenzylaminocarbonyl-1-oxyprop-2-ynyl)-benzene Dihydrochloride]: the Ki came out at 300 nM.

Turning to `NCc1cccc(CNC(=O)OCC#Cc2ccc(C#CCOC(=O)NCc3cccc(CN)c3)o2)c1` [Compound 9, 2,5-Bis-(3-aminomethylbenzylaminocarbonyl-1-oxyprop-2-ynyl)-furan Dihydrochloride], the Ki turned out to be 7.5 nM.

`NC[C@H]1CC[C@H](C(=O)N2CCN(C(=O)OCC#Cc3ccccc3C#CCOC(=O)N3CCN(C(=O)[C@H]4CC[C@H](CN)CC4)CC3)CC2)CC1` [Compound 3, 1,2-Bis[4-(trans-4-aminomethylcyclohexylcarbonyl)-1-piperazinylcarbonyl-1-oxyprop-2-ynyl]benzene Dihydrochloride]: the Ki worked out at 200 nM.

With `NCC1CCC(C(=O)N2CCN(C(=O)OCC#Cc3ccc(C#CCOC(=O)N4CCN(C(=O)C5CCC(CN)CC5)CC4)cc3)CC2)CC1` (stereo not drawn) [Compound 1, 1,4-Bis[4-(trans-4-aminomethylcyclohexylcarbonyl)-1-piperazinylcarbonyl-1-oxyprop-2-ynyl]benzene Dihydrochloride], the Ki was determined as 3 nM.

As to `NCc1ccc(CNC(=O)OCC#Cc2cscc2C#CCOC(=O)NCc2ccc(CN)cc2)cc1` [Compound 7, 3,4-Bis-(4-aminomethylbenzylaminocarbonyl-1-oxyprop-2-ynyl)-thiophene Dihydrochloride], the Ki was 120 nM.

Consider `NCc1ccc(CNC(=O)COCC#Cc2ccc(C#CCOCC(=O)NCc3ccc(CN)cc3)cc2)cc1` [Compound 11, 1,4-Bis-(4-aminomethylbenzylaminocarbonylmethyl-1-oxyprop-2-ynyl)-benzene Dihydrochloride], for which the Ki was 30 nM.

For `NCc1ccc(CC(=O)C#CC(N)c2ccc(C(N)C#CC(=O)Cc3ccc(CN)cc3)cc2)cc1` (centres unmarked) [Compound 13, 1,4-Bis-(4-aminomethylbenzylcarbonyl-1-aminoprop-2-ynyl)-benzene Dihydrochloride], the Ki was 130 nM.

`NCc1ccc(CC(=O)C#CC(N)c2ccccc2C(N)C#CC(=O)Cc2ccc(CN)cc2)cc1` (centres unmarked) [Compound 14, 1,2-Bis-(4-aminomethylbenzylcarbonyl-1-aminoprop-2-ynyl)-benzene Dihydrochloride]: the Ki turned out to be 330 nM.

For `NCc1ccc(CNC(=O)OCC#Cc2cccc(C#CCOC(=O)NCc3ccc(CN)cc3)c2)cc1` [Compound 5, 1,3-Bis-(4-aminomethylbenzylaminocarbonyl-1-oxyprop-2-ynyl)-benzene Dihydrochloride], the Ki is 32 nM.

As for `NCc1ccc(CNC(=O)OCC#Cc2ccc(C#CCOC(=O)NCc3ccc(CN)cc3)o2)cc1` [Compound 8, 2,5-Bis-(4-aminomethylbenzylaminocarbonyl-1-oxyprop-2-ynyl)-furan Dihydrochloride], the Ki was 80 nM.

Turning to `NCc1ccc(CNC(=O)N2CCN(C(=O)OCC#Cc3cccc(C#CCOC(=O)N4CCN(C(=O)NCc5ccc(CN)cc5)CC4)c3)CC2)cc1` [Compound 2, 1,3-Bis[4-(4-aminomethylbenzylaminocarbonyl)-1-piperazinylcarbonyl-1-oxyprop-2-ynyl]-benzene Dihydrochloride], the Ki is 10 nM.

As for `NCc1ccc(CNC(=O)N2CCN(C(=O)OCC#Cc3ccccc3C#CCOC(=O)N3CCN(C(=O)NCc4ccc(CN)cc4)CC3)CC2)cc1` [Compound 4, 1,2-Bis[4-(4-aminomethylbenzylaminocarbonyl)-1-piperazinylcarbonyl-1-oxyprop-2-ynyl]-benzene Dihydrochloride], the Ki was 3 nM.

As for `NCc1cccc(CNC(=O)OCC#Cc2cscc2C#CCOC(=O)NCc2cccc(CN)c2)c1` [Compound 10, 3,4-Bis-(3-aminomethylbenzylaminocarbonyl-1-oxyprop-2-ynyl)-thiophene Dihydrochloride], the Ki is 150 nM.
